Results as given in patent US10682372B2, “Intracellular ATP enhancer” (StaGen Co., Ltd., priority 2015, dated 2020).

Key:
[1] = First administration test: serum uric acid value (uricase-peroxidase method); type: in vivo, Human
Method: For a clinical chemistry automatic analyzer, a dry clinical chemistry analysis measuring unit manufactured by ARKRAY, Inc. was used, and the serum uric acid value was measured by using the uricase-peroxidase method. A first clinical test was conducted by first administering febuxostat at 40 mg/day (single administration of febuxostat), after a while, additionally administering inosine (combined administration of febuxostat and inosine), and gradually increasing the dosage of inosine from 0.5 to 3 g/day. Meanwhile, blood was collected at the timing shown on the horizontal axis of FIG. 2 to measure the serum uric acid value.

[2] = Second administration test: serum uric acid value, single and combined administration; type: in vivo, Human
Method: (1) The subject of administration was the same as Test Example 1.
After a sufficient period had elapsed from completion of Test Example 1, febuxostat was administered again at 40 mg/day to the patient, and the serum uric acid value was measured three days later. Subsequently, febuxostat was discontinued and, after a while, administration of 2 g/day of inosine was started (administered at 1 g each after breakfast and dinner) and was followed by combined use of 2 g/day of inosine and 40 mg of febuxostat (administered at 20 mg each after breakfast and dinner). The serum uric acid value was measured at time points shown on the horizontal axis of FIG. 4.

[3] = Clinical test Phase II: serum uric acid value; type: in vivo, Human
Method: (§1) The following administration test was conducted for 16 Japanese healthy adult males, one subject in Phase I and 15 subjects which divided into Groups of A to E for each groups 3 subjects in phase II.
(§2) After the end of Phase I, administration was performed to three subjects of each of the groups as follows:
(§3) Group A: febuxostat 20 mg twice a day for 14 days;
(§4) Group B: inosine 500 mg twice a day for 14 days;
(§5) Group C: febuxostat 20 mg+inosine 500 mg twice a day for 14 days;
(§6) Group D: febuxostat 20 mg+inosine 1000 mg twice a day for 14 days; and
(§7) Group E: febuxostat 30 mg twice a day for 14 days.

[4] = Clinical test Phase II: urinary uric acid concentration/creatinine concentration; type: in vivo, Human; conditions: Week 0 to Week 2
Method: Since the urinary uric acid concentration varies with urine volume, a urinary uric acid amount was evaluated by using a urinary uric acid/creatinine value acquired by dividing by urinary creatinine concentration. The measurement method of the uric acid value was the same as Test Example 1.
as §1, §2, §3, §4, §5, §6, §7

[5] = Clinical test Phase II: blood purine concentration; type: in vivo, Human; conditions: for ATP concentration in blood, change: Week 0 to Week 2; for inosine concentration in blood, change: any groups (Groups A to E)
Method: Various purines in peripheral blood were measured according to Reference (1). Briefly, peripheral blood was collected with EDTA, mixed with 500 μL+500 μL ice cold 8% PCA, immediately vortexed for five seconds, and centrifuged at 12,000×g for 10 minutes at 4° C., and the supernatant was stored at −80° C. The sample was dissolve in a gathered state, and 40 μL of 2M K2CO3 in 6 M KOH was added to 650 μL of the solution to precipitate PCA and neutralize the solution at the same time. After this solution was centrifuged at 12,000×g for 10 minutes at 4° C., 160 μL of a mobile phase was added to 40 μL of supernatant and apply to HPLC. The conditions of HPLC were also set according to Reference (1) below. The amounts of purines are expressed in molar quantity contained in 1 L of whole blood.
as §1, §2, §3, §4, §5, §6, §7

[6] = Clinical test Phase II: urinary purine concentration; type: in vivo, Human
[7] = system: model mouse of amyotrophic lateral sclerosis; conditions: model mouse of ALS; cited from earlier work
[8] = high-dose administration; cited from earlier work
[9] = in vivo; cited from earlier work
[10] = in vivo; cited from earlier work; remark: listed apart in the source
erythrocytes = erythrocytes kept at low temperature for 20 to 30 days, one hour after addition of inosine; cited from earlier work
[11] = Group A febuxostat 40 mg/day alone
[12] = febuxostat 60 mg/day single administration
[13] = Week 0 to Week 2, single administration of febuxostat
[14] = Week 0 to Week 2, single administration of inosine

## Cc1nc(-c2ccc(OCC(C)C)c(C#N)c2)sc1C(=O)O [febuxostat]
[1]; febuxostat 40 mg/day single administration, 2014.07.12, 8.4 mg/dL before (2014.07.05)
  serum uric acid value: 4.7 mg/dL
[1]; febuxostat 40 mg/day, 0 g inosine, 2014.08.23
  serum uric acid value: 4.9 mg/dL
[1]; febuxostat 40 mg/day, previous (first) test
  reduction of serum uric acid value: 3.7 mg/dL
[2]; febuxostat 40 mg/day, remaining share of the increase
  suppression by febuxostat of the serum uric acid increasing action of inosine: 22.4%
[2]; three days from febuxostat 40 mg/day
  reduction of serum uric acid value: 3.4 mg/dL
[2]; three days from febuxostat 40 mg/day (20150515), 8.2 mg/dL before (20150501)
  serum uric acid value: 4.8 mg/dL
[3]; Group A: febuxostat 20 mg twice a day for 14 days
  reduction of serum uric acid value: 2.53 mg/dL
[3]; Group E: febuxostat 30 mg twice a day for 14 days
  reduction of serum uric acid value: 3.93 mg/dL
[3]; Group E: febuxostat 60 mg/day
  serum uric acid value, lowest observed: less than 2 mg/dL
[3]; any of the administration examples of 40 mg/day of febuxostat
  serum uric acid value, lower limit observed: ≥ 2 mg/dL
[4]; febuxostat alone (Groups A and E)
  urinary uric acid/creatinine, change: reduced
[5]; [11]
  Hx (hypoxanthine) concentration in blood, change: unchanged
  X (xanthine) concentration in blood, change: significantly increased
[5]; Group A febuxostat 40 mg/day
  ATP concentration in blood, change: not changed
[5]; Group E febuxostat 60 mg/day
  ATP concentration in blood, change: No certain tendency was observed
[5]
  inosine concentration in blood, change: no rise
[5]; [12]
  Hx (hypoxanthine) concentration in blood, change: slight rise
  X (xanthine) concentration in blood, change: rise
[6]; Group A: febuxostat 20 mg twice a day
  maximum concentration of urinary X: 556.0 µM
[6]; Group E: febuxostat 30 mg twice a day
  maximum concentration of urinary X: 867.7 µM
[6]; [13]
  urinary Hx, change: moderate rise
  urinary X concentration, change: significantly increased
[7]
  disease progression of amyotrophic lateral sclerosis: inhibits disease progression

## Oc1ncnc2[nH]ncc12 [allopurinol]
[7]
  disease progression of amyotrophic lateral sclerosis: did not inhibit the disease progression
[8]
  symptoms of chronic stable angina: suppressed

## OC[C@H]1O[C@@H](n2cnc3c(O)ncnc32)[C@H](O)[C@@H]1O [inosine]
[2]; inosine 2 g/day (1 g after breakfast and dinner), six days later, 8.3 mg/dL before
  serum uric acid value: 13.4 mg/dL
[2]; inosine 2 g/day alone
  rise of serum uric acid value: 5.1 mg/dL
[2]; inosine alone
  rise of serum uric acid value per 1 g/day administration of inosine: 2.55 mg/dL
[3]; Group B: inosine 500 mg twice a day for 14 days
  serum uric acid value, highest observed: up to 8.1 mg/dL
[3]; Group B: inosine 1 g per day, without febuxostat
  rise of serum uric acid value on average: 2.57 mg/dL
[4]; Group B inosine alone
  urinary uric acid/creatinine, change: significantly increased
[5]; Group B inosine 1 g/day alone
  Hx (hypoxanthine) concentration in blood, change: neither Hx nor X changed
  X (xanthine) concentration in blood, change: neither Hx nor X changed
[5]; Group B inosine 1 g/day
  ATP concentration in blood, change: not changed
[5]
  inosine concentration in blood, change: no rise
[6]; Group B: inosine 500 mg twice a day
  maximum concentration of urinary X: 61.9 µM
[6]; [14]
  urinary Hx, change: no rise
  urinary X, change: no rise
[9]
  symptoms of Parkinson's disease: alleviates symptoms
[10]
  symptoms of multiple sclerosis: alleviates symptoms
erythrocytes
  ATP in erythrocytes: ATP increased
